According to patent publication US9701676B2, “Pro-neurogenic compounds” (Board of Regents of The University of Texas System, priority 2012, dated 2017):

Test system: proliferating neural precursor cells in the hippocampus (subgranular layer of the dentate gyrus)
Assay: standard in vivo hippocampal neurogenesis assay (BrdU labelling, week-long intracranial mini-pump infusion)
Set-up: species or system mouse (C57/B6)
Details: 10 μM concentration, seven days of infusion at 0.5 μL/hour, daily IP BrdU; four 12 week old adult male C57/B6 mice; vehicle 14.5
Procedure: Compounds were administered at a concentration of 10 μM for each molecule. After seven days of infusion at a constant rate of 0.5 μL/hour, a total of 84 μL of volume will have left the pump (0.00084 μMoles) and entered the cerebrospinal fluid. The average volume of a brain from a 12 week old male, C57/B6 mouse in the study is 500 mm^3. […] Under these conditions, at the end of one week of infusion each compound would be present at 1.7 μMolar concentration. Since the actual amount of chemical compound in the brain is likely to be only a fraction of this predicted level, it is reasonable to estimate that compounds were administered at mid to low-nanomolar concentrations.
During compound infusion, animals were intraperitoneally (IP) injected daily with the thymidine analog, bromodeoxyuridine (BrdU), as a means of scoring the birth and survival of proliferating neural precursor cells in the hippocampus. Because both social interaction and voluntary exercise are known to stimulate hippocampal neurogenesis, mice were housed individually without access to running wheels throughout the screening period. Following the week-long period of compound administration, animals were perfused and sacrificed. Dissected brain tissue was fixed, embedded, sectioned, stained with antibodies to BrdU, and evaluated by light microcopy as a means of quantifying neurogenesis and survival of newborn neural precursor cells localized to the subgranular layer of the dentate gyms on the brain hemisphere contralateral to the side of mini-pump cannulation. Every fifth section throughout the entire rostral-caudal extent of the hippocampus was analyzed, and the total number of BrdU+ cells was normalized against the measured volume of the dentate gyms.
Intracranial infusions of either fibroblast growth factor 2 (FGF-2) or artificial cerebral spinal fluid (aCSF) vehicle via the same, week-long protocol were employed as positive and negative controls.
Compounds were evaluated for pro-neurogenic efficacy/neuroprotection in a standard in vivo hippocampal neurogenesis assay at 10 μM concentration in four 12 week old adult male C57/B16 mice.

| Compound | (×10^−06) BrdU+ cells/mm^3 dentate gyrus |
| --- | --- |
| N#CCn1c2ccc(Br)cc2c2cc(Br)ccc21 [P7C3-S235, 2-(3,6-dibromo-9H-carbazol-9-yl)acetonitrile] | 23.4 (×10^−06) BrdU+ cells/mm^3 |
| Cc1ccc2[nH]c3ccc(C)cc3c2c1 [P7C3-S237, 3,6-dimethyl-9H-carbazole] | 23.5 (×10^−06) BrdU+ cells/mm^3 |
| NC(=O)c1ccc2c(c1)c1cc(Br)ccc1n2CC(=O)O [P7C3-S238, 2-(3-bromo-6-carbamoyl-9H-carbazol-9-yl)acetic acid] | 18.8 (×10^−06) BrdU+ cells/mm^3 |
| O=C(O)Cn1c2ccc(Br)cc2c2cc(C(=O)O)ccc21 [P7C3-S239, 6-bromo-9-(carboxymethyl)-9H-carbazole-3-carboxylic acid] | 22.8 (×10^−06) BrdU+ cells/mm^3 |
| Cc1ccc2c(c1)c1cc(Br)ccc1n2CC(=O)O [P7C3-S240, 2-(3-bromo-6-methyl-9H-carbazol-9-yl)acetic acid] | 28.5 (×10^−06) BrdU+ cells/mm^3 |
| O=C(O)CCc1c[nH]c2ccccc12 [P7C3-S242, 3-indolepropionic acid, reference compound] | 21.5 (×10^−06) BrdU+ cells/mm^3 |
| CN(C)c1nc(O)c2[nH]c3ccccc3c2n1 [P7C3-S245, 2-(dimethylamino)-5H-pyrimido[5,4-b]indol-4-ol] | 32.4 (×10^−06) BrdU+ cells/mm^3 |
| CCOC(=O)c1ncc2c(n1)c1ccccc1n2S(=O)(=O)c1ccc(C)cc1 [P7C3-S246, ethyl 5-tosyl-5H-pyrimido[5,4-b]indole-2-carboxylate] | 29 (×10^−06) BrdU+ cells/mm^3 |
| CCOC(=O)C1=NCc2c(c3ccccc3n2S(=O)(=O)c2ccc(C)cc2)N1 [P7C3-S247, ethyl 5-tosyl-4,5-dihydro-1H-pyrimido[5,4-b]indole-2-carboxylate] | 31.1 (×10^−06) BrdU+ cells/mm^3 |
| N[C@@H](Cc1c[nH]c2ccccc12)C(=O)O [P7C3-S248, L-tryptophan, reference compound] | 20.1 (×10^−06) BrdU+ cells/mm^3 |
| N[C@@H](Cc1c[nH]c2ccc(O)cc12)C(=O)O [P7C3-S249, L-5-hydroxy-tryptophan, reference compound] | 34.8 (×10^−06) BrdU+ cells/mm^3 |
| COc1cccc(N(CC(O)Cn2c3ccc(Br)cc3c3cc(Br)ccc32)S(C)(=O)=O)c1 (stereo not shown) [P7C3-S251, N-(3-(3,6-dibromo-9H-carbazol-9-yl)-2-hydroxypropyl)-N-(3-methoxyphenyl)methanesulfonamide] | 17.7 (×10^−06) BrdU+ cells/mm^3 |
| COc1cccc(N(CC(O)Cn2c3ccc(Br)cc3c3cc(Br)ccc32)S(=O)(=O)c2ccccc2)c1 (stereo not shown) [P7C3-S252, N-(3-(3,6-dibromo-9H-carbazol-9-yl)-2-hydroxypropyl)-N-(3-methoxyphenyl)benzenesulfonamide] | 33.2 (×10^−06) BrdU+ cells/mm^3 |
| COc1cccc(N(CC(O)Cn2c3ccc(Br)cc3c3cc(Br)ccc32)S(=O)(=O)c2ccccc2C(F)(F)F)c1 (stereo not shown) [P7C3-S253, N-(3-(3,6-dibromo-9H-carbazol-9-yl)-2-hydroxypropyl)-N-(3-methoxyphenyl)-2-(trifluoromethyl)benzenesulfonamide] | 28.5 (×10^−06) BrdU+ cells/mm^3 |
| COc1ccc(S(=O)(=O)N(CC(O)Cn2c3ccc(Br)cc3c3cc(Br)ccc32)c2cccc(OC)c2)cc1 (stereo not shown) [P7C3-S254, N-(3-(3,6-dibromo-9H-carbazol-9-yl)-2-hydroxypropyl)-4-methoxy-N-(3-methoxyphenyl)benzenesulfonamide] | 25.5 (×10^−06) BrdU+ cells/mm^3 |
| COc1cccc(N(CC(F)Cn2c3ccc(Br)cc3c3cc(Br)ccc32)S(C)(=O)=O)c1 (stereo not shown) [P7C3-S256, N-(3-(3,6-dibromo-9H-carbazol-9-yl)-2-fluoropropyl)-N-(3-methoxyphenyl)methanesulfonamide] | 31.5 (×10^−06) BrdU+ cells/mm^3 |

| Compound | (×10^−06) BrdU+ cells/mm^3 dentate gyrus |
| --- | --- |
| COc1cccc(N(CC(F)Cn2c3ccc(Br)cc3c3cc(Br)ccc32)S(=O)(=O)c2ccccc2C(F)(F)F)c1 (stereo not shown) [P7C3-S257, N-(3-(3,6-dibromo-9H-carbazol-9-yl)-2-fluoropropyl)-N-(3-methoxyphenyl)-2-(trifluoromethyl)benzenesulfonamide] | 29.4 (×10^−06) BrdU+ cells/mm^3 |
| COc1ccc(S(=O)(=O)N(CC(F)Cn2c3ccc(Br)cc3c3cc(Br)ccc32)c2cccc(OC)c2)cc1 (stereo not shown) [P7C3-S258, N-(3-(3,6-dibromo-9H-carbazol-9-yl)-2-fluoropropyl)-4-methoxy-N-(3-methoxyphenyl)benzenesulfonamide] | 29.8 (×10^−06) BrdU+ cells/mm^3 |
| CCOC(=O)c1ncc2[nH]c3ccccc3c2n1 [P7C3-S262, ethyl 5H-pyrimido[5,4-b]indole-2-carboxylate] | 18 (×10^−06) BrdU+ cells/mm^3 |
| O=S(=O)(NCC(O)Cn1c2ccc(Br)cc2c2cc(Br)ccc21)C(F)(F)F (stereo not shown) [P7C3-S264, N-(3-(3,6-dibromo-9H-carbazol-9-yl)-2-hydroxypropyl)-1,1,1-trifluoromethanesulfonamide] | 20.6 (×10^−06) BrdU+ cells/mm^3 |
| CCCN(CCC)C(=O)Cc1c(-c2ccc(Cl)cc2)nc2ccc(Cl)cn12 [P7C3-S265, 6-Chloro-2-(4-chlorophenyl)-N,N-dipropyl-imidazo[1,2-a]pyridine-3-acetamide, reference compound] | 29.3 (×10^−06) BrdU+ cells/mm^3 |
| CC(C)CCC[C@@H](C)[C@H]1CC[C@H]2[C@@H]3CCC4=CC(=NO)CC[C@]4(C)[C@H]3CC[C@]12C [P7C3-S266, Cholest-4-en-3-one, oxime, reference compound] | 42.3 (×10^−06) BrdU+ cells/mm^3 |
| Cc1c(C)c2c(c(C)c1O)CC[C@@](C)(CCC[C@H](C)CCC[C@H](C)CCCC(C)C)O2 [P7C3-S267, (+)-a-tocopherol, reference compound] | 21.4 (×10^−06) BrdU+ cells/mm^3 |
| N#Cc1[nH]c2ccccc2c1N [P7C3-S268, 3-amino-1H-indole-2-carbonitrile] | 32.1 (×10^−06) BrdU+ cells/mm^3 |
| O=c1[nH]c(=O)c2[nH]c3ccc(Br)cc3c2[nH]1 [P7C3-S269, 8-bromo-1H-pyrimido[5,4-b]indole-2,4(3H, 5H)-dione] | 35.4 (×10^−06) BrdU+ cells/mm^3 |
| CN(C)c1nc(O)c2[nH]c3ccc(Br)cc3c2n1 [P7C3-S270, 8-bromo-2-(dimethylamino)-5H-pyrimido[5,4-b]indol-4-ol] | 28 (×10^−06) BrdU+ cells/mm^3 |
| COc1nc(N(C)C)nc2c3cc(Br)ccc3n(C)c12 [P7C3-S275, 8-bromo-4-methoxy-N,N,5-trimethyl-5H-pyrimido[5,4-b]indol-2-amine] | 20.5 (×10^−06) BrdU+ cells/mm^3 |
| COc1ccc2[nH]c(C#N)c(N)c2c1 [P7C3-S276, 3-amino-5-methoxy-1H-indole-2-carbonitrile] | 29.3 (×10^−06) BrdU+ cells/mm^3 |
| O=C(NCC(O)Cn1c2ccc(Br)cc2c2cc(Br)ccc21)Nc1ccccc1 (stereo not shown) [P7C3-S277, 1-(3-(3,6-dibromo-9H-carbazol-9-yl)-2-hydroxypropyl)-3-phenylurea] | 20.3 (×10^−06) BrdU+ cells/mm^3 |
| Cc1ccc2c(c1)c1cc(Br)ccc1n2C [P7C3-S280, 3-bromo-6,9-dimethyl-9H-carbazole] | 25.1 (×10^−06) BrdU+ cells/mm^3 |
| FGF-2: fibroblast growth factor 2, intracranial infusion employed as positive control | 28.4 (×10^−06) BrdU+ cells/mm^3 |
